Data as given in patent US6759538B2, “Substituted diphenyl heterocycles useful for treating HCV infection” (priority 2001, dated 2004).

Target: HCV replicon
Experiment: HCV replicon assay (luciferase)
Type: cell-based, Hepatitis C virus (HCV)
Details: 5-2 Luc replicon cells, 24 hours with compound, luciferase emission; first symbol of Replicon/Western
Excerpt: In one embodiment, the inhibitory activity of the compounds can be confirmed in a replicon assay that assesses the ability of a test compound to block or inhibit HCV replication in replicon cells. One example of a suitable replicon assay is the liver cell-line Huh 7-based replicon assay described in Lohmann et al., 1999, Science 285:110-113. A specific example of this replicon assay which utilizes luciferase translation is provided in the Examples Section. In one embodiment of this assay, the amount of test compound that yields a 50% reduction in translation as compared to a control cell (IC50) may be determined.
The inhibitory activity of certain exemplary compounds of the invention was confirmed using an HCV replicon assay. The HCV replicon can include such features as the HCV 5′ untranslated region including the HCV IRES, the HCV 3′ untranslated region, selected HCV genes encoding HCV polypeptides, selectable markers, and a reporter gene such as luciferase, GFP, etc. In the assay, actively dividing 5-2 Luc replicon-comprising cells (obtained from Rolf Bartenschlager; see Lohmann et al., 1999, Science 285:110-113) were seeded at a density of between about 5,000 and 7,500 cells/well onto 96 well plates (about 90 μl of cells per well) and incubated at 37° C. and 5% CO2 for 24 hours. Then, the test compound (in a volume of about 10 μl) was added to the wells at various concentrations and the cells were incubated for an additional 24 hours before luciferase assay. The media was aspirated from each well and Bright-Glo (Promega, Madison, Wis.) luciferase assay reagents were added to each well according to the manufacturer's instructions. Briefly, the Bright-Glo reagent was diluted 1:1 with PBS and 100 μl of diluted reagent was added to each well. After 5 min of incubation at room temperature, luciferin emission was quantified with a luminometer. In this assay, the amount of test compound that yielded a 50% reduction in luciferase emission (IC50) was determined.

Row | Compound | IC50
1 | 2,2-Dichloro-N-[3-[3-[2,6-dimethyl-4-(N-morpholino-2-ethyleneoxy)phenyl]-5-isoxazolyl]phenyl] Acetamide [Compound 23] | ≤ 10 µM
2 | CN(C)C1CCN(c2cccc(Cl)c2-c2cc(-c3cccc(NC(=O)C(Cl)Cl)c3)on2)C1 (racemic) [Compound 132, (±)-2,2-Dichloro-N-[3-[3-[2-chloro-6-(3-dimethylamino-N-pyrrolidino)phenyl]-5-isoxazolyl]-phenyl] Acetamide] | ≤ 10 µM
3 | O=C(Nc1cccc(-c2cc(-c3c(Cl)cccc3Cl)no2)c1)C(Br)Br [Compound 29, 2,2-Dibromo-N-[3-[3-(2,6-dichlorophenyl)-5-isoxazolyl]phenyl] Acetamide] | ≤ 10 µM
4 | Cc1cccc(Cl)c1-c1cc(-c2cccc(NC(=O)C(Cl)Cl)c2)on1 [Compound 31, 2,2-Dichloro-N-[3-[3-(2-chloro-6-methylphenyl)-5-isoxazolyl]phenyl] Acetamide] | ≤ 10 µM
5 | O=C(Nc1cccc(-c2cc(-c3ccccc3C(F)(F)F)no2)c1)C(Cl)Cl [Compound 33, 2,2-Dichloro-N-[3-[3-(2-trifluoromethylphenyl)-5-isoxazolyl]phenyl] Acetamide] | ≤ 10 µM
6 | O=C(Nc1cccc(-c2cc(-c3c(O)cccc3C(F)(F)F)no2)c1)C(Cl)Cl [Compound 35, 2,2-Dichloro-N-[3-[3-(2-hydroxy-6-trifluoromethylphenyl)-5-isoxazolyl]phenyl] Acetamide] | ≤ 10 µM
7 | CC(C)c1cccc(Cl)c1-c1cc(-c2cccc(NC(=O)C(Cl)Cl)c2)on1 [Compound 39, 2,2-Dichloro-N-[3-[3-(2-chloro-6-isopropylphenyl)-5-isoxazolyl]phenyl] Acetamide] | ≤ 10 µM
8 | O=C(Nc1cccc(-c2cc(-c3c(F)cccc3C(F)(F)F)no2)c1)C(Cl)Cl [Compound 41, 2,2-Dichloro-N-[3-[3-(2-fluoro-6-trifluoromethylphenyl)-5-isoxazolyl]phenyl] Acetamide] | ≤ 10 µM
9 | COc1cccc(F)c1-c1cc(-c2cccc(NC(=O)C(Cl)Cl)c2)on1 [Compound 43, 2,2-Dichloro-N-[3-[3-(2-fluoro-6-methoxyphenyl)-5-isoxazolyl]phenyl] Acetamide] | ≤ 10 µM
10 | O=C(Nc1cccc(-c2cc(-c3ccccc3OC(F)F)no2)c1)C(Cl)Cl [Compound 45, 2,2-Dichloro-N-[3-[3-(2-difluoromethoxyphenyl)-5-isoxazolyl]phenyl] Acetamide] | ≤ 10 µM
11 | Cc1cccc(C)c1-c1cc(-c2cccc(NC(=O)C(Cl)Cl)c2)on1 [Compound 47, 2,2-Dichloro-N-[3-[3-(2,6-dimethylphenyl)-5-isoxazolyl]phenyl] Acetamide] | ≤ 10 µM
12 | O=C(Nc1cccc(-c2cc(-c3c(F)cccc3I)no2)c1)C(Cl)Cl [Compound 49, 2,2-Dichloro-N-[3-[3-(2-fluoro-6-iodophenyl)-5-isoxazolyl]phenyl] Acetamide] | ≤ 10 µM
13 | Cc1ccc(Cl)c(-c2cc(-c3cccc(NC(=O)C(Cl)Cl)c3)on2)c1F [Compound 51, 2,2-Dichloro-N-[3-[3-(6-chloro-2-fluoro-3-methylphenyl)-5-isoxazolyl]phenyl] Acetamide] | ≤ 10 µM
14 | O=C(Nc1cccc(-c2cc(-c3c(F)ccc(F)c3Cl)no2)c1)C(Cl)Cl [Compound 53, 2,2-Dichloro-N-[3-[3-(2-chloro-3,6-difluorophenyl)-5-isoxazolyl]phenyl] Acetamide] | ≤ 10 µM
15 | CN(C(=O)C(Cl)Cl)c1cccc(-c2cc(-c3c(Cl)cccc3Cl)no2)c1 [Compound 57, 2,2-Dicbloro-N-[3-[3-(2,6-dichlorophenyl)-5-isoxazolyl]phenyl]-N-methyl Acetamide] | ≤ 10 µM
16 | CCOc1ccccc1-c1cc(-c2cccc(NC(=O)C(Cl)Cl)c2)on1 [Compound 61, 2,2-Dichloro-N-[3-[3-(2-ethoxyphenyl)-5-isoxazolyl]phenyl] Acetamide] | ≤ 10 µM
17 | CC(C)c1ccccc1-c1cc(-c2cccc(NC(=O)C(Cl)Cl)c2)on1 [Compound 63, 2,2-Dichloro-N-[3-[3-(2-isopropylphenyl)-5-isoxazolyl]phenyl] Acetamide] | ≤ 10 µM
18 | CN(C)c1cc(Cl)c(-c2cc(-c3cccc(NC(=O)C(Cl)Cl)c3)on2)c(Cl)c1 [Compound 65, 2,2-Dichloro-N-[3-[3-(2,6-dichloro-4-dimethylaminophenyl)-5-isoxazolyl]phenyl] Acetamide] | ≤ 10 µM
19 | O=C(CCl)Nc1cccc(-c2cc(-c3c(Cl)cccc3Cl)no2)c1 [Compound 67, 2-Chloro-N-[3-[3-(2,6-dichlorophenyl)-5-isoxazolyl]phenyl] Acetamide] | ≤ 10 µM
20 | O=C(Nc1cccc(-c2cc(-c3c(Cl)cc(OCCCN4CCOCC4)cc3Cl)no2)c1)C(Cl)Cl [Compound 73, 2,2-Dichloro-N-[3-[3-[2,6-dichloro-4-(N-morpholinopropyleneoxy)phenyl]-5-isoxazolyl]-phenyl] Acetamide] | ≤ 10 µM
21 | COc1cccc(C(F)(F)F)c1-c1cc(-c2cccc(NC(=O)C(Cl)Cl)c2)on1 [Compound 77, 2,2-Dichloro-N-[3-[3-(2-methoxy-6-trifluoromethylphenyl)-5-isoxazolyl]phenyl] Acetamide] | ≤ 10 µM
22 | O=C(Nc1cccc(-c2cc(-c3c(Cl)cccc3C3CC3)no2)c1)C(Cl)Cl [Compound 79, 2,2-Dichloro-N-[3-[3-(2-chloro-6-cyclopropylphenyl)-5-isoxazolyl]phenyl] Acetamide] | ≤ 10 µM
23 | COc1cccc(Cl)c1-c1cc(-c2cccc(NC(=O)C(Cl)Cl)c2)on1 [Compound 81, 2,2-Dichloro-N-[3-[3-(2-chloro-6-methoxyphenyl)-5-isoxazolyl]phenyl] Acetamide] | ≤ 10 µM
24 | O=C(Nc1cccc(-c2cc(-c3c(O)cccc3Cl)no2)c1)C(Cl)Cl [Compound 83, 2,2-Dichloro-N-[3-[3-(2-chloro-6-hydroxyphenyl)-5-isoxazolyl]phenyl] Acetamide] | ≤ 10 µM
25 | Cc1cccc(C(F)(F)F)c1-c1cc(-c2cccc(NC(=O)C(Cl)Cl)c2)on1 [Compound 85, 2,2-Dichloro-N-[3-[3-(2-methyl-6-trifluoromethylphenyl)-5-isoxazolyl]phenyl] Acetamide] | ≤ 10 µM
26 | O=C(Nc1cccc(-c2noc(-c3c(Cl)cccc3Cl)n2)c1)C(Cl)Cl [Compound 87, 2,2-Dichloro-N-[3-[5-(2,6-dichlorophenyl)-3-(1,2,4-oxadiazolyl)]phenyl] Acetamide] | ≤ 10 µM
27 | O=C(Nc1cccc(-c2cc(-c3c(C4CC4)cccc3C(F)(F)F)no2)c1)C(Cl)Cl [Compound 89, 2,2-Dichloro-N-[3-[3-(2-cyclopropyl-6-trifluoromethylphenyl)-5-isoxazolyl]phenyl] Acetamide] | ≤ 10 µM
28 | COc1cccc(C)c1-c1cc(-c2cccc(NC(=O)C(Cl)Cl)c2)on1 [Compound 91, 2,2-Dichloro-N-[3-[3-(2-methoxy-6-methylphenyl)-5-isoxazolyl]phenyl] Acetamide] | ≤ 10 µM
29 | CC(C)c1cccc(C(F)(F)F)c1-c1cc(-c2cccc(NC(=O)C(Cl)Cl)c2)on1 [Compound 93, 2,2-Dichloro-N-[3-[3-(2-isopropyl-6-trifluoromethylphenyl)-5-isoxazolyl]phenyl] Acetamide] | ≤ 10 µM
30 | O=C(Nc1cccc(-c2cc(-c3c(Cl)cccc3OCCN3CCOCC3)no2)c1)C(Cl)Cl [Compound 95, 2,2-Dichloro-N-[3-[3-[2-chloro-6-(N-morpholino-2-ethyleneoxy)phenyl]-5-isoxazolyl]-phenyl] Acetamide] | ≤ 10 µM
